Patent publication US20150352108A1, “AMINO-PYRIMIDINE COMPOUNDS AS INHIBITORS OF TBK1 AND/OR IKK EPSILON” (Alzheimer's Institute of America, priority 2009, published 2015)

Target: T1, IKKε (Homo sapiens, UniProt Q14164)
T1 construct: His-tag; made in house; host or cells: Sf9 insect cells
T1 sequence (Q14164 1-716): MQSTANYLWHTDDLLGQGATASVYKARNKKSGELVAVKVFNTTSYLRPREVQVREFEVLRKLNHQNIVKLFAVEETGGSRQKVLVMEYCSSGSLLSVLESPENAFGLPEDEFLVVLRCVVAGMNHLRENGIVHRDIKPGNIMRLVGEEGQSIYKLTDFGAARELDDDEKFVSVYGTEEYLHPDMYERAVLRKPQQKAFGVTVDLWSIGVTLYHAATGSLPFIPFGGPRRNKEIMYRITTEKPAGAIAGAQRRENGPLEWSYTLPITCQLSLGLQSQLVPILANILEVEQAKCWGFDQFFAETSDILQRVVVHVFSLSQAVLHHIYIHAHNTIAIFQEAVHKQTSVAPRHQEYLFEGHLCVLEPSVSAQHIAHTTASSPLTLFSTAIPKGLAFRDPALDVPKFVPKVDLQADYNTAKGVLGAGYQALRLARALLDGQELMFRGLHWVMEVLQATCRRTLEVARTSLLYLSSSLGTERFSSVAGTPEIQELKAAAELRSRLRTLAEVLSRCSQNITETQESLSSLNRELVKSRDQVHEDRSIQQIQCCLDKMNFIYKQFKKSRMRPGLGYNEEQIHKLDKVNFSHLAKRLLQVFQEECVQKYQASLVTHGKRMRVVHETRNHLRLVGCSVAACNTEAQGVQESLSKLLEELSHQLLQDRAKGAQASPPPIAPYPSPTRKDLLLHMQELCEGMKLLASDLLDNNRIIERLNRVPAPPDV
Experiment: In-vitro IKKε kinase assay ([γ33]ATP filter-plate)
Assay type: biochemical
Details: text bins; read-out: IC50 for inhibition of the kinase activity of IKKε
How it was run: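 Phosphorylation of casein or myelin basic protein was counted by P-81 filter capture after 30-45 min reactions stopped with phosphoric acid, with counts normalized to DMSO after background subtraction. ATP was twice Km: 60 μM for TBK1 and 32 μM for IKKε, plus [γ33]ATP. Sf9-expressed His-tag enzymes were used at normal/sensitized levels of 0.1/0.02 μg/ml (TBK1) and 0.1/0.015 μg/ml (IKKε).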

IC50, 5 to 50 nM:
CC(C)C(=O)Nc1ccc(-c2ccnc(Nc3ccc(CN4CCN(CCO)CC4)cc3)n2)cc1C#N [compound 426, N-(2-cyano-4-{2-[(4-{[4-(2-hydroxyethyl)piperazin-1-yl]methyl}phenyl)amino]pyrimidin-4-yl}phenyl)-2-methylpropanamide]
COc1ccc(-c2ccnc(Nc3ccc(S(=O)(=O)NCCN(C)C)c(OC)c3)n2)cc1C#N [compound 384]
CC(C)C(=O)Nc1ccc(-c2ccnc(Nc3cccc(OCCCN4CCOCC4)c3)n2)cc1C#N [compound 429, N-{2-cyano-4-[2-({3-[3-(morpholin-4-yl)propoxy]phenyl}amino)pyrimidin-4-yl]phenyl}-2-methylpropanamide]
COc1ccc(-c2ccnc(Nc3ccccc3)n2)cc1C#N [compound 299, 2-Methoxy-5-[2-(phenylamino)pyrimidin-4-yl]benzonitrile]
N#Cc1cc(-c2ccnc(Nc3cccc(S(N)(=O)=O)c3)n2)ccc1OC1CCOCC1 [Example 146, 3-({4-[3-cyano-4-(tetrahydro-2H-pyran-4-yloxy)phenyl]pyrimidin-2-yl}amino) benzenesulfonamide]
N#Cc1cc(-c2ccnc(Nc3ccc(N4CCOCC4)cc3)n2)ccc1OC1CCN(C(=O)[C@H](O)C(F)(F)F)CC1 [Example 57, 5-(2-{[4-(Morpholin-4-yl)phenyl]amino}pyrimidin-4-yl)-2-({1-[(2S)-3,3,3-trifluoro-2-hydroxypropanoyl]piperidin-4-yl}oxy)benzonitrile]
CCNS(=O)(=O)c1ccc(Nc2nccc(-c3ccc(NC(=O)C(C)C)c(C#N)c3)n2)cc1 [compound 449, N-[2-cyano-4-(2-{[4-(ethylsulfamoyl)phenyl]amino}pyrimidin-4-yl)phenyl]-2-methylpropanamide]
N#Cc1cc(-c2ccnc(Nc3ccc(N4CCOCC4)c(C(F)(F)F)c3)n2)ccc1OC1CCOCC1 [Example 120, 5-(2-{[4-(morpholin-4-yl)-3-(trifluoromethyl)phenyl]amino}pyrimidin-4-yl)-2-(tetrahydro-2H-pyran-4-yloxy)benzonitrile]
COc1ccc(-c2ccnc(Nc3cc(CN(C)C)c(OC)c(OC)c3)n2)cc1C#N [Example 174, 5-[2-({3-[(Dimethylamino)methyl]-4,5-dimethoxyphenyl}amino)pyrimidin-4-yl]-2-methoxybenzonitrile]

IC50, < 5 nM:
COc1cc(Nc2nccc(-c3ccc(OCC(C)C)c(C#N)c3)n2)ccc1C(=O)N1CC(OC)C1 [compound 587, 5-[2-({3-Methoxy-4-[(3-methoxyazetidin-1-yl)carbonyl]phenyl}amino)pyrimidin-4-yl]-2-(2-methylpropoxy) benzonitrile]
Cn1cc(-c2ccc(Nc3nccc(-c4ccc(OC5CCOCC5)c(C#N)c4)n3)cc2)cn1 [compound 584, 5-(2-{[4-(1-Methyl-1H-pyrazol-4-yl)phenyl]amino}pyrimidin-4-yl)-2-(tetrahydro-2H-pyran-4-yloxy)benzonitrile]
COc1cc(Nc2nccc(-c3ccc(OCC4CC4)c(C#N)c3)n2)ccc1C(=O)N1CC(OC)C1 [compound 621, 2-(Cyclopropylmethoxy)-5-[2-({3-methoxy-4-[(3-methoxyazetidin-1-yl)carbonyl]phenyl}amino)pyrimidin-4-yl]benzonitrile]
N#Cc1cc(-c2ccnc(Nc3ccc(-c4ccncc4)cc3)n2)ccc1OC1CCOCC1 [compound 610, 5-(2-{[4-(Pyridin-4-yl)phenyl]amino}pyrimidin-4-yl)-2-(tetrahydro-2H-pyran-4-yloxy)benzonitrile]
N#Cc1cc(-c2ccnc(Nc3ccc(CN4CCN(CCO)CC4)cc3)n2)ccc1O[C@@H]1CCN(C(=O)CO)C1 [compound 636, 2-{[(3R)-1-(Hydroxyacetyl)pyrrolidin-3-yl]oxy}-5-{2-[(4-{[4-(2-hydroxyethyl)piperazin-1-yl]methyl}phenyl)amino]pyrimidin-4-yl}benzonitrile]

IC50, 50 to 500 nM:
CN(C)C(=O)Nc1ccc(-c2ccnc(Nc3ccc(N4CCOCC4)cc3)n2)cc1C#N [Example 81, 3-[2-cyano-4-(2-{[4-(morpholin-4-yl)phenyl]amino}pyrimidin-4-yl)phenyl]-1,1-dimethylurea]
CN(C)C1CCN(c2ccc(-c3ccnc(Nc4ccc(N5CCOCC5)cc4)n3)cc2C#N)C1 (centres unmarked) [Example 69]
COc1ccc(-c2ccnc(Nc3ccc(NC(=O)NCCCN)cc3)n2)cc1C#N [Example 10, 1-(3-Aminopropyl)-3-(4-{[4-(3-cyano-4-methoxyphenyl)pyrimidin-2-yl]amino}phenyl) urea]
CC(C)(C)c1ccc(Nc2nccc(-c3cccc(C#N)c3)n2)cc1 [Example 282, 3-{2-[(4-tert-Butylphenyl)amino]pyrimidin-4-yl}benzonitrile]
N#Cc1cccc(-c2ccnc(Nc3cccc(Cl)c3)n2)c1 [compound 338, 3-{2-[(3-Chlorophenyl)amino]pyrimidin-4-yl}benzonitrile]
COc1ccc(COc2ccc(-c3ccnc(Nc4ccc(N5CCOCC5)cc4)n3)cc2C#N)cc1 [Example 40, 2-[(4-Methoxybenzyl)oxy]-5-(2-{[4-(morpholin-4-yl)phenyl]amino}pyrimidin-4-yl)benzonitrile]
CCC(C)(C)C(=O)Nc1ccc(-c2ccnc(Nc3ccc(N4CCOCC4)cc3)n2)cc1C#N [Example 77, N-[2-cyano-4-(2-{[4-(morpholin-4-yl)phenyl]amino}pyrimidin-4-yl)phenyl]-2,2-dimethylbutanamide]
COc1ccc(Nc2nccc(-c3cc(C#N)cc(OCc4ccccc4)c3)n2)cc1OC [Example 145, 3-(Benzyloxy)-5-{2-[(3,4-dimethoxyphenyl)amino]pyrimidin-4-yl}benzonitrile]
CCN1CCN(c2ccc(-c3ccnc(Nc4ccc(N5CCNC(=O)C5)c(OC)c4)n3)cc2C#N)CC1 [Example 36, 2-(4-Ethylpiperazin-1-yl)-5-(2-{[3-methoxy-4-(3-oxopiperazin-1-yl)phenyl]amino}pyrimidin-4-yl)benzonitrile]
CC(C)(COc1ccc(-c2ccnc(Nc3ccc(N4CCOCC4)cc3)n2)cc1C#N)C(=O)N1CCOCC1 [compound 459, 2-[2,2-dimethyl-3-(morpholin-4-yl)-3-oxopropoxy]-5-(2-{[4-(morpholin-4-yl)phenyl]amino}pyrimidin-4-yl)benzonitrile]
N#Cc1cc(-c2ccnc(Nc3ccc(N4CCOCC4)cc3)n2)ccc1OC1CN(CCO)C1 [compound 474, 2-{[1-(2-hydroxyethyl)azetidin-3-yl]oxy}-5-(2-{[4-(morpholin-4-yl)phenyl]amino}pyrimidin-4-yl)benzonitrile]
COc1ccc(Nc2nccc(-c3ccc(OC(C)c4ccccc4)c(C#N)c3)n2)cc1OC (centres unmarked) [Example 163]
COC(=O)C(C)(C)COc1ccc(-c2ccnc(Nc3ccc(N4CCOCC4)cc3)n2)cc1C#N [Example 84, methyl 3-[2-cyano-4-(2-{[4-(morpholin-4-yl)phenyl]amino}pyrimidin-4-yl)phenoxy]-2,2-dimethylpropanoate]
CC(=O)OC(C)C(=O)Nc1ccc(-c2ccnc(Nc3ccc(N4CCOCC4)cc3)n2)cc1C#N (centres unmarked) [Example 147, 1-{[2-cyano-4-(2-{[4-(morpholin-4-yl)phenyl]amino}pyrimidin-4-yl)phenyl]amino}-1-oxopropan-2-yl acetate]
N#Cc1cc(-c2ccnc(Nc3ccc(N4CCOCC4)cc3)n2)ccc1NC(=O)N1CCCCC1 [Example 44, N-[2-cyano-4-(2-{[4-(morpholin-4-yl)phenyl]amino}pyrimidin-4-yl)phenyl]piperidine-1-carboxamide]
COc1cc(Nc2nccc(-c3ccc(OC)c(C#N)c3)n2)cc(C(=O)N2CC[C@@H](O)C2)c1 [compound 382, 5-{2-[(3-{[(3R)-3-Hydroxypyrrolidin-1-yl]carbonyl}-5-methoxyphenyl)amino]pyrimidin-4-yl}-2-methoxybenzonitrile]
N#Cc1cc(-c2ccnc(Nc3ccc(N4CCOCC4)cc3)n2)ccc1OCC1CCN(C(=O)C2(N)CC2)CC1 [Example 42, 2-({1-[(1-aminocyclopropyl)carbonyl]piperidin-4-yl}methoxy)-5-(2-{[4-(morpholin-4-yl)phenyl]amino}pyrimidin-4-yl)benzonitrile]
N#Cc1cc(-c2ccnc(Nc3ccc(N4CCOCC4)cc3)n2)ccc1NC(=O)NC1CCCCC1 [Example 61, 1-[2-cyano-4-(2-{[4-(morpholin-4-yl)phenyl]amino}pyrimidin-4-yl)phenyl]-3-cyclohexylurea]
